Data on three molecules can be found in ChEMBL document CHEMBL1131959, “Synthesis of glucuronides of multidrug resistance reversing drug MS-209” (Bioorg Med Chem Lett, 1999).

Active and inactive are the calls of the source. The rule behind the calls is not given here.

Assay [1] has as its system Tumor Cell line. The experiment in a line: Multidrug resistant(MDR) reversing activity in vitro in human tumor cells; Inactive. Type of assay: functional, cell-based.
Assay [2] deals with Tumor Cell line. Description: Multidrug resistant(MDR) reversing activity in vitro in human tumor cells; Active. Format: functional, cell-based.

In the case of `O=C(O)[C@H]1O[C@@H](O[C@H](COc2cccc3ncccc23)CN2CCN(C(=O)C(c3ccccc3)c3ccccc3)CC2)[C@H](O)[C@@H](O)[C@@H]1O`, the Reversing activity entry in the assay on Tumor Cell line [1] was “inactive”.

As for `O=C(C(c1ccccc1)c1ccccc1)N1CCN(C[C@@H](O)COc2cccc3ncccc23)CC1`, the Reversing activity result with Tumor Cell line [2] is “Active”.

As to `O=C(O)[C@H]1O[C@@H](O[C@@H](COc2cccc3ncccc23)CN2CCN(C(=O)C(c3ccccc3)c3ccccc3)CC2)[C@H](O)[C@@H](O)[C@@H]1O`, the Reversing activity result in the assay on Tumor Cell line [1] was “inactive”.
